{"source": "paper PMC4585840", "about": "(Scientific Reports, 2015)", "key": {"RCasp3": {"target": "T1, RCasp3 (Homo sapiens, UniProt P42574)", "T1 construct": "Active Casp6 and Casp3 represented >99% of the purified enzyme; purchased Enzo Lifesciences", "T1 sequence (P42574 29-175 limits assumed)": "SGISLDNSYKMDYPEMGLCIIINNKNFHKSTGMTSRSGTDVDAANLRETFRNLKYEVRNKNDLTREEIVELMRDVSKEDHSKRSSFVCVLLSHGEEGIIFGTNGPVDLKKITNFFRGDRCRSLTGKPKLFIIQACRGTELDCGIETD", "T1 sequence (P42574 176-277 limits assumed)": "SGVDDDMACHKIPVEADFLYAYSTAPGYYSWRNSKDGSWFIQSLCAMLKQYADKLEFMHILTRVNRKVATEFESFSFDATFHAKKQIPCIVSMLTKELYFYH", "assay": "in vitro fluorogenic Casp3 activity assay (Ac-DEVD-AFC)", "format": "biochemical", "conditions": "20 nM RCasp3; 1 μM Q-VD-OPh or 0.1 μM bortezomib; Fig. 5c"}, "[1]": {"target": "T2, caspase-like activity of the proteasome (Mus musculus, UniProt Q60692)", "T2 construct": "nLPnLDase activity in mouse liver protein extracts; from tissue; host or cells: mouse liver protein extracts", "T2 sequence (Q60692 1-238)": "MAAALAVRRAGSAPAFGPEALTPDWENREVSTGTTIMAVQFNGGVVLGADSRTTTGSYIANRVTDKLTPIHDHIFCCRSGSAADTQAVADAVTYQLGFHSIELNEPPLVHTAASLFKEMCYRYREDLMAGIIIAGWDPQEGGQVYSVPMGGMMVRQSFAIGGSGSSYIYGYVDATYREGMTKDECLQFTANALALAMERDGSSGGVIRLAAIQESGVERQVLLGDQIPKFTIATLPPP", "assay": "proteasome assay (Ac-nLPnLD-AMC)", "format": "biochemical", "conditions": "mouse liver protein extracts, 0.1 μM bortezomib; supplementary Fig. S2", "experimental": "The caspase-like activity of the proteasome was measured using 10 μM Ac-Nle-Pro-Nle-Asp-AMC (Ac-nLPnLD-AMC, Enzo Lifesciences) as described for caspase activity assays except for the use of 10 mM DTT and a 7-amino-4-methylcoumarin (AMC, Sigma-Aldrich) standard curves. Mouse liver protein extracts were treated with 0.1 μM of epoxomicin (Enzo Lifesciences), bortezomib, 1 μM of Q-VD-OPh, or equal volumes of DMSO for 20 mins on ice before measuring proteasome or caspase activities. […]\nequated at 100% activity of the enzyme. Activity assays for recombinant Casp3 was done similarly to recombinant Casp6, except the substrate used was Ac-Asp-Glu-Val-Asp-7-Amino-4-trifluoromethylcouramin (Ac-DEVD-AFC: Enzo Life Sciences, NY, USA).\nProteasome assay: The caspase-like activity of the proteasome was measured using the substrate Ac-Nle-Pro-Nle-Asp-AMC (Enzo LifeSciences, NY, USA) at a final concentration of 10 µM in Stennicke’s buffer in the presence of 10 mM DTT. […]\nStatistical Analysis: For Caspase-3 activity assays, data represent the mean ± SEM of 3 livers from 3 animals and was analyzed using a one-way ANOVA with Dunnett’s post hoc test (*** p < 0.001 in DMSO, and ### p < 0.001 in bortezomib) comparing all samples to LPS/GALN-treated mice in the absence of methylene blue, while proteasome assays were analyzed using […]"}, "HCT116 cells": {"test_system": "HCT116 cells", "assay": "cell viability (microscopy and MTT) in HCT116 cells", "format": "cell-based, human", "conditions": "2 hours", "experimental": "(§1) HCT116 cells, plated at a density of 1 × 10^5 cells/well and human neurons, plated at a density of 6 × 10^6 cells/well on poly-L-lysine were treated with PBS or phenothiazines for 2 hours. The media was replaced before acquiring images with the Nikon Eclipse Ti microscope and the NIS-Elements (Version 3.10) software. MTT assays: Cells were plated in 96-well plates at 1 × 10^4 or 1 × 10^5 cells per well for 24 hours before treatments with phenothiazines or PBS. After 2 hours, fresh media containing […] MTT (3-(4,5-dimethylthiazol-2-yl)-2,5-diphenyltetrazolium bromide) (Sigma-Aldrich) was added and the cells were incubated for 4 hours at 37 °C in 5% CO2. The media was removed, formazan crystals were dissolved in DMSO, and the absorbance was measured at 560 nm and 670 nm using the BioTek Synergy H4 plate reader."}, "RCasp6 [2]": {"target": "T3, RCasp6 (Homo sapiens, UniProt P55212)", "T3 construct": "The zymogen is cleaved at three distinct sites to remove the prodomain and linker regions in order to obtain an active enzyme; His tag (C); made in house; host or cells: E. coli BL21 (DE3)pLysS", "T3 sequence (P55212 24-179 limits assumed)": "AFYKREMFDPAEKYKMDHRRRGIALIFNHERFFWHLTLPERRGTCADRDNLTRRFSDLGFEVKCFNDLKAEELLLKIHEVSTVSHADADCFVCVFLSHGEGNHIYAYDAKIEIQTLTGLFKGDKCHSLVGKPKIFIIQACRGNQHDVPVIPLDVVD", "T3 sequence (P55212 194-293 limits assumed)": "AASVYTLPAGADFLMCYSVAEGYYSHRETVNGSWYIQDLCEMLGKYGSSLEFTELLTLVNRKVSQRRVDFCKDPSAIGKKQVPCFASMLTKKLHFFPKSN", "assay": "in vitro fluorogenic Casp6 activity assay (Ac-VEID-AFC)", "format": "biochemical", "conditions": "10 μM DTT; Fig. 1c"}, "RCasp6 [3]": {"target": "T3, RCasp6", "assay": "in vitro tubulin cleavage assay with RCasp6", "format": "biochemical", "conditions": "20 nM RCasp6, 10 μM DTT, 10 hours, western blot densitometry; read-out: IC50, cleavage of tubulin by RCasp6 (Tub∆Casp6 relative to total tubulin)", "experimental": "Phenothiazines were mixed with 20 nM RCasp6 or RCasp3, 10 μM DTT, and 7.5 nM BSA in SB and 36 μg HCT116 protein extracts added before incubation at 37 °C for 10 hours, western blotting, and densitometry for tubulin-cleaved by Casp6 (Tub∆Casp6) and total tubulin as described in the western blot section. The IC50 was determined by a non-linear regression fit for log inhibitor vs caspase activity with a Hill slope of −1 using GraphPad Prism 5.0.\n(§2) The 10630 (1:10,000) and GN60622 (1:10,000) neoepitope antibodies against the p20 subunit of active Casp6[16] and Tub∆Casp6[23], respectively, were generated in our laboratory. The β-actin clone AC-15 (1:5000, Sigma-Aldrich), Casp6 p10 clone B93-4 (1:250, BD Canada, Mississauga, ON, CA), Casp3, and full-length α-tubulin (1:1000, Cell Signaling Technology Inc., Danvers, MA, USA) antibodies were diluted in 5% non-fat dry milk in Tris-buffered saline containing 0.1% Tween-20 (Sigma-Aldrich). […] Secondary anti-mouse conjugated to alkaline phosphatase (Jackson Immunoresearch Laboratories Inc., West Grove, PA) was developed with nitro-blue tetrazolium (ThermoSci) and 5-bromo-4-chloro-3′-indolyphosphate (ThermoSci)."}, "Casp6 [4]": {"target": "T4, Casp6 (Homo sapiens, UniProt P55212)", "T4 sequence (P55212 24-179 limits assumed)": "T3 sequence (P55212 24-179 limits assumed)", "T4 sequence (P55212 194-293 limits assumed)": "T3 sequence (P55212 194-293 limits assumed)", "assay": "Casp6 activity in Casp6p20p10-transfected HCT116 cells", "format": "cell-based", "design": "for active Casp6p20 subunit (p20), full length Casp6 lacking its pro-domain; Casp6p20p10 (p20p10); expressed in transfected cells; host or cells: HCT116 human colon carcinoma cells", "conditions": "transfected HCT116, 2 hrs; 100 μM and 1 mM methylene blue, 50 μM azure A, 10 μM and 100 μM azure B", "experimental": "(§3) Activity assays for RCasp1 (Biovision, Millpitas, CA, USA) and RCasp3 (Enzo Lifesciences) used Z-Tyr-Val-Ala-Asp-7-Amino-4-trifluoromethylcoumarin (z-YVAD-AFC: Enzo LifeSciences,), and Ac-Asp-Glu-Val-Asp-7-Amino-4-trifluoromethylcouramin (Ac-DEVD-AFC: Enzo LifeSciences), respectively. To confirm that these substrates report caspase activity and not proteasomal caspase-like enzyme activity, 1 μM pan-caspase inhibitor, Q-VD-OPh (Sigma-Aldrich) or 0.1 μM proteasome inhibitor, bortezomib (Calbiochem, MA, USA) were tested on 20 nM RCasp3 or 40–60 μg of mouse liver protein extracts.\nHuman colon carcinoma (HCT116) cells, cultured as recommended (ATCC: Manassas, VA, USA), were transfected with 1 μg pCep4βCasp6p20p10 and 8 μg polyethyleneimine (Polysciences Inc., Warrington, PA, USA), and grown 24 hrs before treatment with PBS and phenothiazines for 2 hours. Human primary neurons were cultured from fetal brain cortical areas obtained under ethical guidelines and approved by the McGill University’s institutional review board as previously described. Human primary neurons plated in poly-L-lysine -coated 6-well plates at a density of 3 × 10^6 cells/mL were serum-deprived for 2 hours in the presence of phenothiazines or an equivalent volume of PBS. Proteins were harvested in cell lysis buffer (CLB; 50mM HEPES, 0.1% CHAPS, 0.1mM EDTA).\nas §2"}, "human primary neurons": {"test_system": "human primary neurons", "assay": "cell viability (microscopy) in human primary neurons", "format": "cell-based", "conditions": "phase contrast microscopy, 2 hours", "experimental": "as §1"}, "RCasp6 [5]": {"target": "T3, RCasp6", "assay": "inhibitor kinetic studies (Michaelis-Menten / Lineweaver-Burk) on RCasp6", "format": "biochemical"}, "Casp6 [6]": {"target": "T4, Casp6", "assay": "Casp6 activity in serum-deprived human primary neuron cultures", "format": "cell-based", "design": "endogenous in cells; host or cells: human primary neurons from fetal brain cortex", "conditions": "serum-deprived neurons, 2 hrs, 100 μM methylene blue, 50 μM azure A, 10 μM azure B"}, "[7]": {"target": "T5, DEVDase activity in mouse liver protein extracts (Mus musculus, UniProt P70677)", "T5 construct": "Casp3 activity was assessed in liver protein extracts from mice; from tissue; host or cells: mouse liver (C57BL6/J), protein extracts", "T5 sequence (P70677 29-175 limits assumed)": "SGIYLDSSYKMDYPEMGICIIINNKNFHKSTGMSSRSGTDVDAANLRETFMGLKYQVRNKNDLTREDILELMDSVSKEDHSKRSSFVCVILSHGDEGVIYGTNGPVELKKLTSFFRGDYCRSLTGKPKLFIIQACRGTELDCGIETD", "T5 sequence (P70677 176-277 limits assumed)": "T1 sequence (P42574 176-277 limits assumed) with V3T, D5E, D6E, H10Q, A46S, Q50L, D53H, F77L, A79S", "assay": "DEVDase activity in mouse liver protein extracts with added inhibitors", "format": "biochemical", "conditions": "inhibitor added to extracts: 1 μM Q-VD-OPh, 0.1 μM bortezomib or 0.1 μM epoxomicin", "experimental": "as §3\nThe caspase-like activity of the proteasome was measured using 10 μM Ac-Nle-Pro-Nle-Asp-AMC (Ac-nLPnLD-AMC, Enzo Lifesciences) as described for caspase activity assays except for the use of 10 mM DTT and a 7-amino-4-methylcoumarin (AMC, Sigma-Aldrich) standard curves. Mouse liver protein extracts were treated with 0.1 μM of epoxomicin (Enzo Lifesciences), bortezomib, 1 μM of Q-VD-OPh, or equal volumes of DMSO for 20 mins on ice before measuring proteasome or caspase activities."}}, "note": "Numbering of substitutions follows the chain as printed."}
{"smiles": "CC(C)C[C@H](NC(=O)[C@H](Cc1ccccc1)NC(=O)c1cnccn1)B(O)O", "note": "[bortezomib]", "values": [{"measurement": "RCasp3 activity in vitro", "setting": "RCasp3", "result": "did not inhibit"}, {"measurement": "nLPnLDase proteasomal activity", "setting": "[1]", "result": "significantly inhibited"}]}
{"smiles": "CN(C)c1ccc2nc3ccc(N)cc3[s+]c2c1", "note": "[azure A, (7-aminophenothiazin-3-ylidene)-dimethylazanium;chloride]", "values": [{"measurement": "concentration above which toxicity was shown", "setting": "HCT116 cells; HCT116, MTT assay", "result": "above 50 μM"}, {"measurement": "concentration at which cells retained morphology and confluence comparable to PBS-treated controls", "setting": "HCT116 cells; HCT116, phase contrast microscopy", "result": 50, "unit": "μM"}, {"measurement": "concentration necessary for a significant inhibition of Casp6 activity", "setting": "RCasp6 [2]", "result": 10, "unit": "nM"}, {"measurement": "inhibition of Casp6 activity", "setting": "RCasp6 [2]", "result": "inhibited Casp6 activity in a dose dependent manner"}, {"measurement": "IC50", "setting": "RCasp6 [3]", "result": 500, "unit": "nM"}, {"measurement": "Casp6 activity on the Ac-VEID-AFC peptide substrate", "setting": "Casp6 [4]", "result": "trend towards inhibition but it did not reach statistical significance"}, {"measurement": "concentration above which cell body size and axonal fragmentation increased", "setting": "human primary neurons", "result": "above 50 μM"}, {"measurement": "mode of inhibition", "setting": "RCasp6 [5]; Lineweaver Burk plot, Km increasing, Vmax the same", "result": "competitive"}, {"measurement": "Ki", "setting": "RCasp6 [5]; competitive inhibition model, nonlinear regression, Ac-VEID-AFC substrate, 10 nM RCasp6", "result": 420, "unit": "nM"}, {"measurement": "VEIDase activity", "setting": "Casp6 [6]", "result": "significantly inhibited"}, {"measurement": "Tub∆Casp6/Tub levels", "setting": "Casp6 [6]; vs PBS-treated serum-deprived neurons", "result": "significantly decreased"}]}
{"smiles": "CC[C@H](C)[C@H](NC(=O)[C@H]([C@@H](C)CC)N(C)C(C)=O)C(=O)N[C@H](C(=O)N[C@@H](CC(C)C)C(=O)[C@@]1(C)CO1)[C@@H](C)O", "note": "[epoxomicin]", "values": [{"measurement": "DEVDase activity in LPS/GALN-treated mouse liver protein extracts", "setting": "[7]", "result": "nor was Casp3 DEVDase activity affected"}]}
{"smiles": "CC(C)[C@H](NC(=O)c1ccc2ccccc2n1)C(=O)N[C@@H](CC(=O)O)C(=O)COc1c(F)cccc1F", "note": "[Q-VD-OPh]", "values": [{"measurement": "DEVDase activity in LPS/GALN-treated mouse liver protein extracts", "setting": "[7]", "result": "abrogated"}, {"measurement": "RCasp3 activity in vitro", "setting": "RCasp3", "result": "abrogated"}]}
